Source: ChEMBL document CHEMBL1201862, “PubChem BioAssay data set” (2004)
Counter-ions that a name gives are not always drawn.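 Each compound was tested at five concentrations against cells in 96-well plates for 48 hours. GI50 = concentration required for 50% inhibition of growth.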 The source made the active and inactive calls. Cut-off read from the data, not from the text of the source: active = GI50 up to about 1.1 µM and inactive = higher.

Legend:
Experiment in all cases: NCI-60 cell line screen, 48 h
M19-MEL = tested on: M19-MEL
NCI/ADR-RES = tested on: NCI/ADR-RES
SNB-19 = tested on: SNB-19
SK-MEL-5 = tested on: SK-MEL-5
SK-OV-3 = tested on: SK-OV-3
NCI-H460 = tested on: NCI-H460
HL-60 = tested on: HL-60
DMS-114 = tested on: DMS-114
SK-MEL-2 = tested on: SK-MEL-2
SN12C = tested on: SN12C
HOP-62 = tested on: HOP-62
OVCAR-3 = tested on: OVCAR-3
OVCAR-4 = tested on: OVCAR-4
XF498 = tested on: XF498
PC-3 = tested on: PC-3
786-0 = tested on: 786-0
M14 = tested on: M14
DU-145 = tested on: DU-145
ACHN = tested on: ACHN
MDA-N = tested on: MDA-N

Compound | GI50 (M19-MEL) | GI50 (NCI/ADR-RES) | GI50 (SNB-19) | GI50 (SK-MEL-5) | GI50 (SK-OV-3) | GI50 (NCI-H460) | GI50 (HL-60) | GI50 (DMS-114) | GI50 (SK-MEL-2) | GI50 (SN12C) | GI50 (HOP-62) | GI50 (OVCAR-3) | GI50 (OVCAR-4) | GI50 (XF498) | GI50 (PC-3) | GI50 (786-0) | GI50 (M14) | GI50 (DU-145) | GI50 (ACHN) | GI50 (MDA-N)
CC1C(=O)OC2CC[N+]3(CC(=O)c4ccc(Br)cc4)CC=C(COC(=O)C(C)(O)C1(C)O)C23 (centres undefined) | > 375 µM (inactive) | > 375 µM (inactive) | > 375 µM (inactive) | > 375 µM (inactive) | > 375 µM (inactive) | > 375 µM (inactive) | 361 µM (inactive) | > 375 µM (inactive) | > 375 µM (inactive) | > 375 µM (inactive) | > 375 µM (inactive) | > 375 µM (inactive) | > 375 µM (inactive) | 259 µM (inactive) | – | – | – | – | – | –
C[n+]1c2ccccc2c(CNC(CCC(N)=O)C(=O)O)c2ccccc21 (centres undefined) | 2.18 µM (inactive) | 4.56 µM (inactive) | 6.18 µM (inactive) | 1.99 µM (inactive) | 6.21 µM (inactive) | 3.72 µM (inactive) | 0.239 µM (active) | 0.577 µM (active) | 4.76 µM (inactive) | 2.64 µM (inactive) | 4.94 µM (inactive) | 2.31 µM (inactive) | 3.46 µM (inactive) | 2 µM (inactive) | 5.61 µM (inactive) | 1.01 µM (active) | 3.41 µM (inactive) | 5.52 µM (inactive) | 1.76 µM (inactive) | 2.87 µM (inactive)
CC(=O)N(O)CCCCCNC(=O)CCC(=O)N(O)CCCCCNC(=O)CCC(=O)N(O)CCCCCN [DEFEROXAMINE HYDROCHLORIDE] | 43.8 µM (inactive) | > 72.3 µM (inactive) | 51.6 µM (inactive) | 21.7 µM (inactive) | 38.2 µM (inactive) | 6.53 µM (inactive) | 31 µM (inactive) | 43.4 µM (inactive) | > 92.7 µM (inactive) | 25.9 µM (inactive) | 18.4 µM (inactive) | 20.9 µM (inactive) | 21.7 µM (inactive) | > 100 µM (inactive) | > 73.6 µM (inactive) | 13.3 µM (inactive) | 19 µM (inactive) | 13.6 µM (inactive) | 12.5 µM (inactive) | 53.2 µM (inactive)
